Values joined by “and” are separate entries in the source; they are usually repeats but may differ in a detail not shown here. Equal values may be shown once.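 Method: 48-hour compound exposure of cells in 96-well plates, five concentrations, linear interpolation of endpoints. GI50: concentration for 50% inhibition of growth. The concentration for full growth arrest is given as TGI.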
Legend:
Assay in all cases: NCI anticancer screen, dose series, 48 h
CCRF-CEM leukemia = test system: CCRF-CEM leukemia
EKVX NSCLC = test system: EKVX NSCLC
MOLT-4 leukemia = test system: MOLT-4 leukemia
OVCAR-5 ovarian = test system: OVCAR-5 ovarian
SF-539 CNS = test system: SF-539 CNS
SK-MEL-5 melanoma = test system: SK-MEL-5 melanoma
SNB-19 CNS = test system: SNB-19 CNS
SW-620 colon = test system: SW-620 colon
TK-10 renal = test system: TK-10 renal
SK-OV-3 ovarian = test system: SK-OV-3 ovarian

Row | SMILES | TGI (CCRF-CEM leukemia) | TGI (EKVX NSCLC) | TGI (MOLT-4 leukemia) | TGI (OVCAR-5 ovarian) | TGI (SF-539 CNS) | TGI (SK-MEL-5 melanoma) | TGI (SNB-19 CNS) | TGI (SW-620 colon) | TGI (TK-10 renal) | TGI (SK-OV-3 ovarian) | GI50 (EKVX NSCLC) | GI50 (SK-MEL-5 melanoma) | GI50 (SK-OV-3 ovarian) | GI50 (SW-620 colon) | GI50 (CCRF-CEM leukemia) | GI50 (MOLT-4 leukemia) | GI50 (OVCAR-5 ovarian) | GI50 (SF-539 CNS) | GI50 (SNB-19 CNS) | GI50 (TK-10 renal)
1 | COc1ccc(C[C@]23CCC(=O)N2CCc2cc(OC)c(O)cc23)cc1O | > 100 µM | > 100 µM | > 100 µM | > 100 µM | > 100 µM | > 100 µM | > 100 µM | > 100 µM | > 100 µM |  |  |  |  |  |  |  |  |  |  | 
2 | O=S(=O)(O)n1ccnc1 (tested in a mixture with another compound) |  | > 100 µM | > 100 µM | > 100 µM | > 100 µM | > 100 µM | > 100 µM | > 100 µM | > 100 µM | > 100 µM |  |  |  |  |  |  |  |  |  | 
3 | CN=C1CN=C(OP(=O)(N2CCOCC2)N2CCOCC2)c2cc(Cl)ccc2N1 | > 100 µM | > 100 µM | > 100 µM | > 100 µM | > 100 µM | > 100 µM | > 100 µM | > 100 µM | > 100 µM |  |  |  |  |  |  |  |  |  |  | 
4 | O=C(O)CN1C(=O)CN=C(c2ccccn2)c2cc(Cl)ccc21 |  | > 100 µM | 21.7 µM | > 100 µM | > 100 µM | > 100 µM | > 100 µM | > 100 µM | > 100 µM | > 100 µM |  |  |  |  |  |  |  |  |  | 
5 | COc1ccc(-c2oc3c(OC)c(OC)c(OC)c(O)c3c(=O)c2OC)cc1O | 11.4 µM | > 100 µM | 12.7 µM | > 100 µM | 0.101 µM | 0.995 µM |  | > 100 µM | 51 µM | 0.783 µM and 0.419 µM | 0.317 µM | < 0.01 µM | < 0.01 µM | < 0.01 µM |  |  |  |  |  | 
6 | Cc1ccc(/C=N/NS(=O)(=O)c2ccccc2)cc1C | > 100 µM | > 100 µM | > 100 µM | > 100 µM | > 100 µM | > 100 µM |  | > 100 µM | > 100 µM | > 100 µM |  |  |  |  |  |  |  |  |  | 
7 | CCN(CC)CCn1c(=O)c2cc(OC)c(OC)cc2c2ccc3cc4c(cc3c21)OCO4 | > 33.6 µM | 29.4 µM | 3.72 µM | 36.1 µM | 0.818 µM | 0.457 µM | 27.2 µM | 23.2 µM | 30.3 µM |  | 12.2 µM | 0.193 µM |  | 0.692 µM | 0.0824 µM | 0.0715 µM | 8.21 µM | 0.253 µM | 0.367 µM | 13.4 µM
8 | CC(=O)[CH-]C(C)=O.CC(=O)[CH-]C(C)=O.[Cl-].[O]=[V] |  | > 100 µM |  | 70.1 µM | 37.5 µM | 70.6 µM | > 100 µM | > 100 µM | 60.6 µM |  | 30.3 µM | 28.4 µM |  | 38.9 µM |  |  | 26.4 µM | 17.5 µM | 39.9 µM | 24.5 µM
9 | CS(=O)(=O)NNS(=O)(=O)c1ccc(F)cc1 | > 100 µM | > 100 µM | > 100 µM |  | > 100 µM | > 100 µM | > 100 µM | > 100 µM | > 100 µM |  |  |  |  |  |  |  |  |  |  | 
10 | Cc1nc2ccccc2c(/C=C/c2ccccc2)c1C(=O)/C=C/c1ccc(C(F)(F)F)cc1 | > 100 µM | 3.11 µM | > 100 µM | 4.45 µM | 3.27 µM | 3.13 µM | 3.05 µM | 3.49 µM | 4.04 µM |  | 1.56 µM | 1.73 µM |  | 1.02 µM | 0.381 µM | 0.623 µM | 1.93 µM | 1.82 µM | 1.65 µM | 2.35 µM
11 | CCOC(=O)c1c(-c2ccc(OC)c(O)c2)c(C#N)c(=S)n(C2OC(COC(C)=O)C(OC(C)=O)C(OC(C)=O)C2OC(C)=O)c1-c1ccccc1 (configuration not stated) | > 100 µM | > 100 µM | > 100 µM | > 100 µM |  | 33.4 µM and > 100 µM | > 100 µM | > 100 µM |  |  | 45.4 µM and > 100 µM | 15.5 µM and > 100 µM |  |  | 47.2 µM and > 100 µM | 38.3 µM and > 100 µM |  |  |  | 
12 | NNc1nc2ccccc2o1 | > 100 µM | > 100 µM | > 100 µM | > 100 µM | > 100 µM | > 100 µM | > 100 µM | > 100 µM | > 100 µM |  |  |  |  |  |  |  |  |  |  | 
13 | CCOC(=O)CNC(=O)OCc1ccccc1 | > 100 µM |  | > 100 µM | > 100 µM | > 100 µM |  | > 100 µM | > 100 µM | > 100 µM | > 100 µM |  |  |  |  |  |  |  |  |  | 
14 | CO/C=C(\Br)c1ccc2c(c1)OCO2 | > 100 µM | > 100 µM | > 100 µM | > 100 µM | > 100 µM |  | > 100 µM | > 100 µM | > 100 µM | > 100 µM |  |  |  |  |  |  |  |  |  | 
15 | O=C(CC1(O)C(=O)Nc2ccccc21)c1ccc(Cl)cc1Cl (configuration not stated) |  | > 100 µM | > 100 µM | > 100 µM | > 100 µM | > 100 µM | > 100 µM | > 100 µM | > 100 µM | > 100 µM |  |  |  |  |  |  |  |  |  | 

From PubChem BioAssay (NCI)
